Results on 2 compounds are retold here after patent US10639345B2, “Compositions for preserving photoreceptor cells, retinal pigment epithelial cells, or visual function” (Massachusetts Eye and Ear Infirmary, priority 2010, dated 2020).

The structures appear in SMILES notation.

In experiment [1] the test system is photoreceptors. Put plainly: Normalized ONL thickness ratio after experimental retinal detachment. It counts as in vivo, rat. Particulars: subretinal Z-VAD 300 μM and/or Nec-1 400 μM. The procedure: Photoreceptor death was also assessed by TUNEL analysis at three days after retinal detachment in retina treated with either vehicle, Nec-1, Z-VAD or Nec-1+Z-VAD. […] Nine sections for each eye specimen were randomly selected, and the central area of detached retina and the mid-peripheral region of attached retina were photographed. The ONL thickness ratio was measured at ten points in each section by masked observers. […] (GCL: ganglion cell layer, INL: inner nuclear layer. *, P<0.05. Scale bar, 100 μm). […]
TNF-α protein contents in rat retina were determined using ELISA Kit for rat TNF-α (Invitrogen, Carlsbad, Calif.). Goat anti-mouse/rat TNF-α blocking antibody was purchased from R&D Systems (Minneapolis, Minn.). The rat eyes were subretinally injected with 1% of sodium hyaluronate containing 0.1 mg/ml of anti-TNF-α antibody or control antibody.

Experiment [2] deals with photoreceptors. Put plainly: Normalized ONL thickness ratio after retinal detachment in RIP-3−/− mice. Particulars: five days after retinal detachment, RIP-3−/− mice.
Protocol: TUNEL assays were used to measure the amount of apoptotic and necrotic cell death (Grasl-Kraupp et al., HEPTALOGY (1995) 21(5):1465-8). TUNEL and quantification of TUNEL positive cells in ONL were performed as described above by using the ApopTag Fluorescein In Situ Apoptosis Detection Kit (Millipore, Billerica, Mass.). The ratio of the ONL thickness to the thickness of neuroretina in the central area of the detached retina was determined by National Institutes of Health ImageJ software and standardized by that in the attached retina. The data are expressed as normalized ONL thickness ratio [(ONL/neuroretina thickness in detached retina)/(ONL/neuroretina thickness in attached retina)].
The subject of experiment [3] is photoreceptors. Put plainly: TUNEL-positive photoreceptors in ONL after experimental retinal detachment. It counts as in vivo, rat.
The test system of experiment [4] is photoreceptors. Put plainly: TUNEL-positive cells after retinal detachment in RIP-3−/− mice. The format is in vivo. Conditions: three days after retinal detachment.
Protocol: The role of RIP-3 in RIP-mediated programmed necrosis in photoreceptor loss after retinal detachment was investigated in RIP-3 knockout (RIP-3−/−) mice. TUNEL assays were used to measure the amount of apoptotic and necrotic cell death (Grasl-Kraupp et al., HEPTALOGY (1995) 21(5):1465-8). TUNEL and quantification of TUNEL positive cells in ONL were performed as described above by using the ApopTag Fluorescein In Situ Apoptosis Detection Kit (Millipore, Billerica, Mass.).
Another experiment has as its system primary RPE cells. Put plainly: Viability of primary RPE cells treated with poly I:C (Cell Counting Kit-8). It counts as cell-based, mice. Particulars: WT primary RPE cells, 5 μg/ml poly I:C for 48 hours. On the procedure: As described in Example 11, primary RPE cells were extracted from the retina of mice and cultured in the presence of 5 μg/ml of poly I:C for 48 hours or with PBS. Cell viability was measured using Cell Counting Kit-8 (Dojindo Laboratories, Kumamoto, Japan). This assay is based on the cleavage of 2-(2-methoxy-4-nitrophenyl)-3-(4-nitrophenyl)-5-(2,4-disulfophenyl)-2H-tetrazolium, monosodium salt (WST-8) by the mitochondrial dehydrogenase enzyme to produce a formazan dye. After incubation with WST-8 for two hours at 37° C., absorbance was measured at 450 nm to determine cell viability.
For orientation: Formazan colour is commonly taken as a measure of viable cells.

Experiment [5] has as its system photoreceptors. Nature of the experiment: Poly I:C-induced dry AMD model, TUNEL-positive cells in ONL. It counts as in vivo, mice. Particulars: compared with vehicle. An excerpt: (§1) In this example, the mechanism of photoreceptor cell death in dry AMD was investigated using a polyinosinic:polycytidylic acid (Poly I:C)-induced dry AMD model (Yang et al. (2009) NEJM 359(14):1456-63). Poly I:C is a synthetic double-stranded RNA (dsRNA) analog that activates toll-like receptor 3 (TLR3) signaling (FIG. 20A). Furthermore, dsRNA are known to exist in the drusen of human AMD patients. As depicted in FIG. 20A, activation of the TLR3 signaling results in activation of RIP-1 kinase pathway. […] In the experiments described herein, 2-3 μl of Poly I:C (1 mg/ml) was injected into the subretinal space of the eye (e.g., approximately 2-3 μg of Poly I:C was administered to the eye) to induce AMD.
The thickness of the ONL was determined by the National Institutes of Health ImageJ software. […] Specifically, the number of TUNEL-positive cells in the RIP-3−/− mice treated with poly I:C was at least three fold less than control mice consistent with RIP-3 playing a role in mediating programmed necrosis in AMD (FIG. 22B).
(§2) To determine the effect of Nec-1 and a pan-caspase inhibitor in the treatment of AMD, TUNEL assay was performed to assess photoreceptor cell death in the poly I:C induced AMD model. […] The thickness of ONL was also measured.

A further experiment deals with NF-κB p65. Put plainly: Western blot for phospho-NF-κB p65 after retinal detachment. The format is in vivo. From the text: FIG. 16 is a photograph of an immunoblot from a Western blot analysis for phospho-NFκB p65 in control retina without a retinal detachment and in retina three days after retinal detachment with treatment of vehicle, Z-VAD or Z-VAD+Nec-1 (lane-loading differences were normalized by the level of β-tubulin).
The vitreous and neural retina combined was collected on day 3 after retinal detachment. Samples were run on 4-12% SDS-polyacrylamide gel electrophoresis and transferred onto PVDF membrane. After blocking with 3% nonfat dried milk, the membrane was reacted with RIP-3 (1:10000; Sigma, Saint Louis, […].), RIP-1 (1:2000; BD Biosciences), phosphoserine (1:2000; Enzo, Plymouth Meeting, Pa.) or anti-phosphorylated NF-κB p65 (1:1000; Cell signaling) antibody. Membranes were then developed with enhanced chemiluminescence. Lane-loading differences were normalized by β-tubulin (1:1000; Cell Signaling).
For Western Blot analysis, the vitreous and neural retina combined, were collected at three days after retinal detachment. Samples were run on 4-12% SDS-polyacrylamide gel electrophoresis and transferred onto PVDF membrane. After blocking with 3% nonfat dried milk, the membrane was reacted with anti-light chain 3 antibody (1:1000; Cell signaling), anti-phosphorylated ribosomal protein S6 antibody (1:1000; Cell Signaling) or anti-phosphorylated NF-κB p65 antibody (1:1000; Cell Signaling). […]

Experiment [6] concerns photoreceptors. Nature of the experiment: Poly I:C-induced dry AMD model, ONL thickness. It counts as in vivo, mice.
Text: as §1
The thickness of the outer nuclear layer (ONL) was also determined in WT or RIP-3−/− mice at 14 days following treatment with poly I:C. Sections were randomly selected from either WT or RIP-3−/− mice following poly I:C treatment and the retina was photographed. The ONL thickness was measured in each section by masked observers.
as §2

Experiment [7] deals with photoreceptors. Nature of the experiment: TEM quantification of apoptotic and necrotic photoreceptor death after retinal detachment. The format is in vivo. Particulars: day three after retinal detachment, ONL. On the procedure:
The morphology of photoreceptors after retinal detachment was examined by transmission electron microscopy (TEM) and propidium iodide (PI) staining and the effect of treatment with Z-VAD and/or a Nec-1 compound of Formula I-C was analyzed.
TEM was performed as previously described (Hisatomi T et al. (2008). J. CLIN. INVEST. 118:2025-2038). […] Over 200 photoreceptors each eye were photographed and subjected to quantification of cell death modes in a masked fashion. Photoreceptors showing cellular shrinkage and nuclear condensation were defined as apoptotic cells, while photoreceptors associated with cellular and organelle swelling and discontinuities in nuclear and plasma membrane were defined as necrotic cells. The presence of electron-dense granular materials were reported to occur subsequent to both apoptotic and necrotic cell death and cells with these findings were labeled simply as end-stage cell death/unclassified (Hisatomi T et al. (2003) AM. J. PATHOL. 162:1869-1879; Erickson P A et al. (1983) INVEST. OPHTHALMOL. VIS. SCI. 24:927-942).
On day three after retinal detachment, photoreceptor death caused by apoptosis was almost twice that caused by necrosis in vehicle-treated retina (% apoptotic cells: 21.7±1.3%, necrotic cells: 13.3±1.0%, unclassified: 4.4±1.4%; FIGS. 7A and 7E).

For the compound `CN1C(=O)NC(Cc2c[nH]c3c(Cl)cccc23)C1=O` (stereo not shown) [Nec-1], the “normalized ONL thickness ratio” value in the experiment on photoreceptors [1] (five days after retinal detachment) is listed as 0.58±0.12. Moreover, in the experiment on photoreceptors [1] (three days after retinal detachment), the “normalized ONL thickness ratio” value worked out at 0.71±0.09. Further, the “normalized ONL thickness ratio” value in the experiment on photoreceptors [2] amounted to 0.761±0.049. Besides, the “number of TUNEL-positive cells in the ONL” value in the experiment with photoreceptors [3] (day three after retinal detachment, subretinal Z-VAD 300 μM and/or Nec-1 400 μM at detachment) is 1067.5±95.5 cells/mm^2. Also, the “number of TUNEL-positive cells” value in the experiment on photoreceptors [4] is on record as 786.7±278.7 cells/mm^2. The “viability of RPE cells” value with primary RPE cells is “did not protect RPE cells”. Further, the “number of TUNEL-positive cells in ONL” value in the experiment on photoreceptors [5] is given as “slight effect”. Moreover, in the experiment on NF-κB p65, the “NF-κB p65 phosphorylation” value is listed as “no effect”. The ONL thickness result in the experiment with photoreceptors [6] is reported as “minimal effect”. In addition, in the experiment on photoreceptors [7], the “% apoptotic cells (TEM)” value stood at 19.8±2.0%; the “% necrotic cells (TEM)” value is on record as 13.1±1.4%; the “% unclassified (end-stage cell death, TEM)” value turned out to be 2.8±0.4%.
`C[C@H](NC(=O)C(=O)Nc1ccccc1C(C)(C)C)C(=O)N[C@@H](CC(=O)O)C(=O)COc1c(F)c(F)cc(F)c1F` [IDN-6556, (3-{2-[(2-tert-butyl-phenylaminooxalyl)-amino]-propionylamino}-4-oxo-5-(2,3,5,6-tetrafluoro-phenoxy)-pentanoic acid)]: the “neuroprotective effect / photoreceptor loss (TUNEL-positive photoreceptors and ONL thickness ratio)” value in the experiment with photoreceptors [3] (day three after retinal detachment in rats, subretinal injection) is on record as “did not show any neuroprotective effect”.
